“And” between values parts separate entries of the source, which are not always exact repeats. Equal values may be shown once.
Experiments:
Assay type in all cases: physicochemical
[1] = 1 month stability of MRTX849 crystalline vs amorphous, HPLC evaluation after accelerated stress conditions
[2] = Photostability study (1/2 ICH conditions)
Protocol: (§1) 40° C./75% RH and 60° C. in loosely capped, foil-wrapped small glass vials. Data was obtained for up to two weeks for samples stored at 60° C. and up to two months for samples stored at 25° C./60% RH and 40° C./75% RH. In addition, data was generated from photostability study performed on all three lots as a part of the protocol.

[3] = Comparative thermal stability study of Form A, Form B and amorphous MRTX849 Drug Substance; settings: for change in appearance on storage: two weeks at 60° C., two months at 25° C./60% RH and 40° C./75% RH
Protocol: as §1

[4] = Dynamic vapor sorption, 5% to 95% RH
Protocol: Vapor Sorption isotherms were obtained using a Surface Measurement System (SMS) DVS Intrinsic moisture sorption analyzer, controlled by DVS Intrinsic Control software. Samples were not dried prior to analysis. Sorption and desorption data were collected over a range of 5%-95% relative humidity (RH) at 10% RH increments under a nitrogen purge. The equilibrium criterion used for analysis was less than 0.0100% weight change in 5 minutes with a maximum equilibration time of 3 hours.
Vapor sorption data were collected on a Surface Measurement System DVS Intrinsic instrument. Samples were not dried prior to analysis. Sorption and desorption data were collected over a range from 5% to 95% RH at 10% RH increments under a nitrogen purge. The equilibrium criterion used for analysis was less than 0.0100% weight change in 5 minutes with a maximum equilibration time of 3 hours.

[5] = Dynamic vapor sorption isotherm, 25° C., 0-90% RH; settings: for weight gain (DVS): sorption
Protocol: (§2) Sorption isotherms of crystalline Form A were obtained using a SMS GVS Intrinsic moisture sorption analyzer, controlled by GVS Intrinsic Control software. The sample temperature was maintained at 25° C. by the instrument controls. The humidity was controlled by mixing streams of dry and wet nitrogen, with a total flow rate of 200 ml/min. The relative humidity was measured by a calibrated Rotronic probe (dynamic range of 1.0-100% RH), located near the sample. The weight change (mass relaxation) of the sample as a function of % RH was constantly monitored by a microbalance (accuracy ±0.005 mg).
(§3) The sample was loaded and unloaded at 40% RH and 25° C. (typical room conditions). A moisture sorption isotherm was performed as outlined below (2 scans per complete cycle). The standard isotherm was performed at 25° C. at 10% RH intervals over a 0-90% RH range. A double cycle (4 scans) was carried out. Data analysis was carried out within Microsoft Excel using the DVS Analysis Suite.
as §2, with “B” for “A”, “DVS” for “GVS”, “change,” for “change”
as §3, with “Briefly, a sample of crystalline Form B was placed in a tared mesh stainless steel basket under ambient conditions. The sample” for “The sample”

[6] = 0.5 × ICH: Vis Stress at 600 klux-hrs, UV Stress at 100 W-hr/m^2

Row | SMILES | Purity [2, 6] | Purity ([2]; Control) | Purity ([2]; T(0)) | Appearance ([3]; 1 Month 25° C./60% RH) | Total impurities ([3]; 1 Month 25° C./60% RH) | Appearance ([3]; 1 Month 40° C./75% RH) | Total impurities ([3]; 1 Month 40° C./75% RH) | Appearance ([3]; 1 Week 60° C.) | Total impurities ([3]; 1 Week 60° C.) | Appearance ([3]; 2 Months 25° C./60% RH) | Total impurities ([3]; 2 Months 25° C./60% RH) | Appearance ([3]; 2 Months 40° C./75% RH) | Total impurities ([3]; 2 Months 40° C./75% RH) | Appearance ([3]; 2 Weeks 40° C./75% RH) | Total impurities ([3]; 2 Weeks 40° C./75% RH) | Appearance ([3]; 2 Weeks 60° C.) | Total impurities ([3]; 2 Weeks 60° C.) | Appearance ([3]; Initial T(0)) | change in appearance on storage [3] | weight gain (DVS) ([5]; at 90% RH) | other results
1 | C=C(F)C(=O)N1CCN(c2nc(OC[C@@H]3CCCN3C)nc3c2CCN(c2cccc4cccc(Cl)c24)C3)C[C@@H]1CC#N [API standard] |  |  |  |  |  |  |  |  |  |  |  |  |  |  |  |  |  |  |  |  | Total impurities (%) ([1]; API standard): 0.71%
2 | C=C(F)C(=O)N1CCN(c2nc(OC[C@@H]3CCCN3C)nc3c2CCN(c2cccc4cccc(Cl)c24)C3)C[C@@H]1CC#N [Amorphous, 2-[(2S)-4-[7-(8-chloro-1-naphthyl)-2-[[(2S)-1-methylpyrrolidin-2-yl]methoxy]-6,8-dihydro-5H-pyrido[3,4-d]pyrimidin-4-yl]-1-(2-fluoroprop-2-enoyl)piperazin-2-yl]acetonitrile] | 91.25 | 98.42 | 98.59 | Tan Solid | 1.42% | Tan Solid | 2.36% | Brown Solid | 5.93% | Tan Solid | 1.86% | Light Brown | 5.73% | Tan Solid | 1.95% | Brown Solid | 9.89% | Tan Solid |  |  | Total impurities (%) ([1]; 25° C./60% RH, 1 month): 2.21%; Total impurities (%) ([1]; 40° C./75% RH, 1 month, open): 2.98%; Total impurities (%) ([1]; 40° C./75% RH, 1 month, listed as MRTX849 amorphous): 3.28%; Total impurities ([3]; 2 Months 40° C./75% RH, listed as amorphous material): 5.7%; Total impurities ([3]; 2 Weeks 60° C., listed as amorphous material): 9.9%; Color change on storage ([3]; 60° C. condition and after two months at 40° C./75% RH): changed from tan to brown/light brown; Total impurities ([3]; Initial T(0), listed as amorphous material): 1.4%
3 | C=C(F)C(=O)N1CCN(c2nc(OC[C@@H]3CCCN3C)nc3c2CCN(c2cccc4cccc(Cl)c24)C3)C[C@@H]1CC#N [Form A, 2-[(2S)-4-[7-(8-chloro-1-naphthyl)-2-[[(2S)-1-methylpyrrolidin-2-yl]methoxy]-6,8-dihydro-5H-pyrido[3,4-d]pyrimidin-4-yl]-1-(2-fluoroprop-2-enoyl)piperazin-2-yl]acetonitrile Form A] | 96.74 | 98.91 | 98.86 | Off-white | 0.98% | Off-white | 1.04% | Off-white | 1.27% | Off-white | 1.06% | Off-white | 1.2% and 1.16% | Off-white | 1.07% | Off-white | 1.4% and 1.43% | Off-white | no change in appearance | 0.6% | observed weight gain (DVS) ([4]; from 5% to 90% RH): 0.4%; weight gain (DVS) ([5]; at 40% RH): about 0.1%
4 | C=C(F)C(=O)N1CCN(c2nc(OC[C@@H]3CCCN3C)nc3c2CCN(c2cccc4cccc(Cl)c24)C3)C[C@@H]1CC#N [Form B, 2-[(2S)-4-[7-(8-chloro-1-naphthyl)-2-[[(2S)-1-methylpyrrolidin-2-yl]methoxy]-6,8-dihydro-5H-pyrido[3,4-d]pyrimidin-4-yl]-1-(2-fluoroprop-2-enoyl)piperazin-2-yl]acetonitrile Form B] | 98.41 | 99.74 | 99.75 | Creamy | 0.23% | Creamy | 0.35% | Creamy | 0.31% | Creamy |  | Creamy | 0.4% and 0.44% | Creamy | 0.37% | Creamy | 0.4% | Creamy | no change in appearance | 2.5% | water corresponding to DVS weight gain ([4]; 5% to 95% RH): 1.3 mol water; weight gain (DVS) ([4]; between 5% and 55% RH): 0.2 wt %; weight gain increase (DVS) ([4]; between 55% and 95% RH): 3.5%; Total impurities ([3]; Initial T(0)): 0.3%; weight change (DVS) on desorption ([5]; at 50% RH after desorption from 70% RH): 0.4%; weight gain (DVS) ([5]; at 60% RH): about 0.6%; weight change (DVS) on desorption ([5]; at 70% RH after desorption from 90% RH): 2.2%; weight gain (DVS) ([5]; at 70% RH): 2.9%
5 | C=C(F)C(=O)N1CCN(c2nc(OC[C@@H]3CCCN3C)nc3c2CCN(c2cccc4cccc(Cl)c24)C3)C[C@@H]1CC#N [Form E, 2-[(2S)-4-[7-(8-chloro-1-naphthyl)-2-[[(2S)-1-methylpyrrolidin-2-yl]methoxy]-6,8-dihydro-5H-pyrido[3,4-d]pyrimidin-4-yl]-1-(2-fluoroprop-2-enoyl)piperazin-2-yl]acetonitrile Form E] |  |  |  |  |  |  |  |  |  |  |  |  |  |  |  |  |  |  |  |  | gradual weight gain (DVS) ([4]; between 5% to 96% RH): 1.2%
6 | C=C(F)C(=O)N1CCN(c2nc(OC[C@@H]3CCCN3C)nc3c2CCN(c2cccc4cccc(Cl)c24)C3)C[C@@H]1CC#N [MRTX849 crystalline, 2-[(2S)-4-[7-(8-chloro-1-naphthyl)-2-[[(2S)-1-methylpyrrolidin-2-yl]methoxy]-6,8-dihydro-5H-pyrido[3,4-d]pyrimidin-4-yl]-1-(2-fluoroprop-2-enoyl)piperazin-2-yl]acetonitrile] |  |  |  |  |  |  |  |  |  |  |  |  |  |  |  |  |  |  |  |  | Total impurities (%) ([1]; 40° C./75% RH, 1 month): 0.77%

Source: patent US12281113B2, “Crystalline forms of a KRas G12C inhibitor” (MIRATI THERAPEUTICS, INC., priority 2020, dated 2025)
